Measured values: ChEMBL document CHEMBL3616395, “Discovery of 4-arylamido 3-methyl isoxazole derivatives as novel FMS kinase inhibitors” (Eur J Med Chem, 2015)
The source made the active and inactive calls.

Legend:
[1] = target: Glycogen synthase kinase-3 beta (Homo sapiens) (UniProt P49841); test: Inhibition of GSK3b (unknown origin) at 10 uM after 40 mins by scintillation counting analysis
[2] = target: Proto-oncogene tyrosine-protein kinase Src (Homo sapiens) (UniProt P12931); test: Inhibition of c-SRC (unknown origin) at 10 uM after 40 mins by scintillation counting analysis
Chain of Proto-oncogene tyrosine-protein kinase Src (Homo sapiens) (P12931 2-536 limits assumed): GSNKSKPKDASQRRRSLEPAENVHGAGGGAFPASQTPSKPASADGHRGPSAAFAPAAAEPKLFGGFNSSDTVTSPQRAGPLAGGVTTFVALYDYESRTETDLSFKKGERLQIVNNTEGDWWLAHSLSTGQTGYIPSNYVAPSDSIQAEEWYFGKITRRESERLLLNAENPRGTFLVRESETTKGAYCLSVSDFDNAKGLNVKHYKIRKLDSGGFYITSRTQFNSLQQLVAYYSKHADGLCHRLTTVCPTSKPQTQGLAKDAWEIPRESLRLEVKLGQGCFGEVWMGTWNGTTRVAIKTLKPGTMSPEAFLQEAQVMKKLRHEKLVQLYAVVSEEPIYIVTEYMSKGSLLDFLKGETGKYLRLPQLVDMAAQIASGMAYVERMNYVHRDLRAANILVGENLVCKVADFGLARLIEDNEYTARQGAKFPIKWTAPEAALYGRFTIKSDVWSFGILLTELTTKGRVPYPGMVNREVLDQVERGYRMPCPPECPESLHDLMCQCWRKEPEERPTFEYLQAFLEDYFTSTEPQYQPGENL

[3] = target: Macrophage-stimulating protein receptor (Homo sapiens) (UniProt Q04912); test: Inhibition of RON (unknown origin) at 10 uM after 40 mins by scintillation counting analysis
[4] = target: Serine/threonine-protein kinase B-raf (Homo sapiens, UniProt P15056); test: Inhibition of BRAF (unknown origin) at 10 uM after 40 mins by scintillation counting analysis
[5] = organism: Homo sapiens; test: Inhibition of Pi3K (unknown origin) at 10 uM after 40 mins by scintillation counting analysis
[6] = target: Tyrosine-protein kinase JAK3 (Homo sapiens) (UniProt P52333); test: Inhibition of Jak3 (unknown origin) at 10 uM after 40 mins by scintillation counting analysis
Chain of Tyrosine-protein kinase JAK3 (Homo sapiens) (P52333 whole entry): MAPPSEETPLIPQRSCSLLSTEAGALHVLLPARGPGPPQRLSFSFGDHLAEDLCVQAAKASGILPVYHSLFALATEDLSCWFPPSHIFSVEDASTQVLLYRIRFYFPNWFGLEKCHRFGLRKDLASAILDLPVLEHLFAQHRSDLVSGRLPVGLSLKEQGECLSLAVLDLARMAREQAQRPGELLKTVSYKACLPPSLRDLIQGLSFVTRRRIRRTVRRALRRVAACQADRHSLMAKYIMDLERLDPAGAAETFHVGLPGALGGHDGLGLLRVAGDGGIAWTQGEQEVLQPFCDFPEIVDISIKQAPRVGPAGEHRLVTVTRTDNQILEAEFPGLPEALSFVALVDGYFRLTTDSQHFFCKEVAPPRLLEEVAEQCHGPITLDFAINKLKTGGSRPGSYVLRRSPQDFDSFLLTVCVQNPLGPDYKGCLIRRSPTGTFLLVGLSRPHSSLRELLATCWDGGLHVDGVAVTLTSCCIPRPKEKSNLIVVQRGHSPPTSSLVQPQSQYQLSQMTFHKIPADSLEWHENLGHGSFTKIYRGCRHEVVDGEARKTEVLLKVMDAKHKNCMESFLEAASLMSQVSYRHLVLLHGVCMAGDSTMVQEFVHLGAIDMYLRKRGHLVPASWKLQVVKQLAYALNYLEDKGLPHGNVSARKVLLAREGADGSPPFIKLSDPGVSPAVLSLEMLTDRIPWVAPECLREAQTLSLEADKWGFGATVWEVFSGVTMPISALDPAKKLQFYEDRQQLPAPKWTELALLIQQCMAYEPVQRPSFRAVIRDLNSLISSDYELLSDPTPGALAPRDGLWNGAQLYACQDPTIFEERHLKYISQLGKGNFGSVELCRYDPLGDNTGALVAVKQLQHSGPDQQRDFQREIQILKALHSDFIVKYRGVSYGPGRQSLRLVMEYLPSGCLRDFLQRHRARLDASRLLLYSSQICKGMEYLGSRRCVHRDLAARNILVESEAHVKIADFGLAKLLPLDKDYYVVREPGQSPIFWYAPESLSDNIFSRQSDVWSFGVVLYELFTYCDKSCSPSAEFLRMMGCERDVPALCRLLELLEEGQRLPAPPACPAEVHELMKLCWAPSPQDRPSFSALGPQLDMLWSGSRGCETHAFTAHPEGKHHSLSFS

[7] = target: Platelet-derived growth factor receptor beta (Homo sapiens) (UniProt P09619); test: Inhibition of PDGFRbeta (unknown origin) at 10 uM after 40 mins by scintillation counting analysis
Chain of Platelet-derived growth factor receptor beta (Homo sapiens) (P09619 whole entry): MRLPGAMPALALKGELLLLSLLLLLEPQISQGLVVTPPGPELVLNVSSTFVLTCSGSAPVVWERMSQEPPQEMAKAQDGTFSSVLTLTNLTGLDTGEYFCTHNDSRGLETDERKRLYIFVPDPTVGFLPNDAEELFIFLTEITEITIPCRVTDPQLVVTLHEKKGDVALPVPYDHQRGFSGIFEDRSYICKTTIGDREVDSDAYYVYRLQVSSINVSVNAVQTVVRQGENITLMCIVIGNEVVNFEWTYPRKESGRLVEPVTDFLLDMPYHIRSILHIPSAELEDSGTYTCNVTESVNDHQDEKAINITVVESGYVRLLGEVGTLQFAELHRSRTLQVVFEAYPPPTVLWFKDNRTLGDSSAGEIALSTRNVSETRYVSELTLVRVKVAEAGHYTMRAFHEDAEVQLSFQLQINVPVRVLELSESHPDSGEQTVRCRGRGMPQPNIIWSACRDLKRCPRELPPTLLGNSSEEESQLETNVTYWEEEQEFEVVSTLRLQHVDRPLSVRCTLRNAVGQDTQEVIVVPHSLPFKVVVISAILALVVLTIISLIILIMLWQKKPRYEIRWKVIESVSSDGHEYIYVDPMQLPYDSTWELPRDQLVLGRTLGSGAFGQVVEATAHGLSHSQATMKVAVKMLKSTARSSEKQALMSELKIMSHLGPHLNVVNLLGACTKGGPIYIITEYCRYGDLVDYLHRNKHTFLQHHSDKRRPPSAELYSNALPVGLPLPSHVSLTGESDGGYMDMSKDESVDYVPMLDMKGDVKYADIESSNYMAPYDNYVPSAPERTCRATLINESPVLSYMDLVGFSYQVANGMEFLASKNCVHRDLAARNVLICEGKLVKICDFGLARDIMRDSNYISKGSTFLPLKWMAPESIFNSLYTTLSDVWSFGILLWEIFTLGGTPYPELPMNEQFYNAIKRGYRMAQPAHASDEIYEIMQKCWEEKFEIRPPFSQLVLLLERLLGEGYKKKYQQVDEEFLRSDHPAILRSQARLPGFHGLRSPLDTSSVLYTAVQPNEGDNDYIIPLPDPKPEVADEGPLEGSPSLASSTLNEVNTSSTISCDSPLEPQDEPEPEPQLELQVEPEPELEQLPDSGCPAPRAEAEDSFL

[8] = target: RAC-alpha serine/threonine-protein kinase (Homo sapiens) (UniProt P31749); test: Inhibition of AKT1 (unknown origin) at 10 uM after 40 mins by scintillation counting analysis
Chain of RAC-alpha serine/threonine-protein kinase (Homo sapiens) (P31749 whole entry): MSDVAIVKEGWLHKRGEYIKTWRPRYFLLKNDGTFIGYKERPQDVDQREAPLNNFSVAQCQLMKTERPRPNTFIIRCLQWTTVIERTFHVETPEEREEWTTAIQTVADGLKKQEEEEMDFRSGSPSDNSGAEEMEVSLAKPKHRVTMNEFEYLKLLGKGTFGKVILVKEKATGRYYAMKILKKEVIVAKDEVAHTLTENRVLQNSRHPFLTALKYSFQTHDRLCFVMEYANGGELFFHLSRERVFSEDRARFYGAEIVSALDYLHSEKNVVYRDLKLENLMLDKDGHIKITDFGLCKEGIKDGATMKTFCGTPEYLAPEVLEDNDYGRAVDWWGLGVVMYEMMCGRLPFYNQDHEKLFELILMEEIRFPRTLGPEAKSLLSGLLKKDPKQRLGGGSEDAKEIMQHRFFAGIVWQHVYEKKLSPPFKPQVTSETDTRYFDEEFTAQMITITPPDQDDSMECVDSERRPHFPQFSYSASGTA

[9] = target: RAF proto-oncogene serine/threonine-protein kinase (Homo sapiens, UniProt P04049); test: Inhibition of RAF1 (unknown origin) at 10 uM after 40 mins by scintillation counting analysis
Chain of RAF proto-oncogene serine/threonine-protein kinase (P04049 whole entry): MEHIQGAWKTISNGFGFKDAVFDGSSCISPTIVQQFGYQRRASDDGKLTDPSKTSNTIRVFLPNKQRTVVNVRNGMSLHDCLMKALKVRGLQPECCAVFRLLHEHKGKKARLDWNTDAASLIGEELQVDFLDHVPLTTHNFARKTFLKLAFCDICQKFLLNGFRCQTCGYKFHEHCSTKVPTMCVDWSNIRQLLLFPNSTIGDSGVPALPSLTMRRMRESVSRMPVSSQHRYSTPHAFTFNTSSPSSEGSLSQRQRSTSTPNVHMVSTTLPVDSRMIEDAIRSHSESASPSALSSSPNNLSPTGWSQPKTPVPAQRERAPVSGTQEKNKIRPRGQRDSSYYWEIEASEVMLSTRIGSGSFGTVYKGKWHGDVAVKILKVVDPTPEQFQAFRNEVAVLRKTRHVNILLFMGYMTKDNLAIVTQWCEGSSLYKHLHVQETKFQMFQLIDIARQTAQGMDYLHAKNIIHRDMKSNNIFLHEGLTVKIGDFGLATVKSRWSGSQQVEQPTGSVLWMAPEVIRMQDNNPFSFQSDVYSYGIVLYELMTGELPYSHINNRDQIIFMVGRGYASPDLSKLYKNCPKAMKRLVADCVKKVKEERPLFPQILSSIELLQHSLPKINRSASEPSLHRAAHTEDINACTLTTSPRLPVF

[10] = target: Mitogen-activated protein kinase 8 (Homo sapiens) (UniProt P45983); test: Inhibition of JNK1 (unknown origin) at 10 uM after 40 mins by scintillation counting analysis
Chain of Mitogen-activated protein kinase 8 (Homo sapiens) (P45983 whole entry): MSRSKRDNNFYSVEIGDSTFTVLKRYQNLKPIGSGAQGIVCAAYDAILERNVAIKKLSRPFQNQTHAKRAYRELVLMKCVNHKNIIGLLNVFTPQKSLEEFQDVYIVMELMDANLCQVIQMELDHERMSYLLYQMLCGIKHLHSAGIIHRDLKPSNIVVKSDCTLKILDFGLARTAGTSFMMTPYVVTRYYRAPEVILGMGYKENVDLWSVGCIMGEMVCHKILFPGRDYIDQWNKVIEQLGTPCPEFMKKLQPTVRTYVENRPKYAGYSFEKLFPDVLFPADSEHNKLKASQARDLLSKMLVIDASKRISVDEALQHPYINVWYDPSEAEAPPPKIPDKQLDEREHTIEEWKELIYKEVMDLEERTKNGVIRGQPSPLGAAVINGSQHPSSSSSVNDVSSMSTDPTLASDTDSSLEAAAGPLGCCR

Measured: inhibition

Chain of Glycogen synthase kinase-3 beta (Homo sapiens) (P49841 whole entry, looked up): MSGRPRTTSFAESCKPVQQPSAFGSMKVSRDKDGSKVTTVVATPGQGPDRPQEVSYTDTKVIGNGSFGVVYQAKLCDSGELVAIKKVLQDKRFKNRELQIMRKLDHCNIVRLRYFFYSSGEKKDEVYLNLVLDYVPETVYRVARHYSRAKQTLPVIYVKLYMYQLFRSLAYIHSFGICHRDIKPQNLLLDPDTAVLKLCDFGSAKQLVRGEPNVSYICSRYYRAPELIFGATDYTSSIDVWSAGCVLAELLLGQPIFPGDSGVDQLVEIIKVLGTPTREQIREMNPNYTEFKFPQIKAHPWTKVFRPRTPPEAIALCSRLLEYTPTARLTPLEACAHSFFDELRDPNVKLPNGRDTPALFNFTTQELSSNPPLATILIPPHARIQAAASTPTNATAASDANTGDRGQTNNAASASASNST

Cc1ccccc1C(=O)Nc1cnoc1C
inactive: all assays above
